The values below come from patent publication US9908831B2, “Resist composition, method for forming resist pattern, polyphenolic compound for use in the composition, and alcoholic compound that can be derived therefrom” (Mitsubishi Gas Chemical Company, Inc., priority 2011, dated 2018).

Holding throughout (assay type): physicochemical
Data set [1] in a line: Glass transition temperature by DSC. The following applies: 10° C./min to 300° C., second heating after quench, nitrogen gas stream. The method, then: (4) Glass Transition Temperature
The apparatus EXSTAR6000DSC (trade name) manufactured by SII NanoTechnology Inc. was used. About 5 mg of each sample was placed in a non-sealed container made of aluminum, and the temperature was raised to 300° C. at the rate of temperature rise of 10° C./min in a nitrogen gas stream (30 mL/min). After the non-sealed container made of aluminum was quenched, again the temperature was raised to 300° C. at the rate of temperature rise of 10° C./min in a nitrogen gas stream (30 mL/min), thereby performing DSC measurement. The temperature corresponding to the middle point (where the specific heat was changed into the half) of a region in which a discontinuous portion appeared in the baseline was defined as the glass transition point.
In general terms: DSC measures the heat that a sample takes up or gives off during a temperature scan.

A short description of data set [2]: Solubility test of compound in safe solvent. The settings on record: 23° C., visual. The method, then:
(2) Solubility Test of Compound in Safe Solvent
The solubility of the compound in PGME and PGMEA was evaluated according to the following standard using the dissolution amount in each solvent. For the measurement of the dissolution amount, the compound was precisely weighed in a test tube at 23° C.; and the target solvent was added to the compound so that a predetermined concentration of the liquid to be obtained was set; a ultrasonic wave was applied to the liquid in an ultrasonic washing machine for 30 minutes; and the state of the resulting liquid was visually evaluated.
A: 5.0% by weight≦dissolution amount
B: 3.0% by weight≦dissolution amount<5.0% by weight
C: dissolution amount<3.0% by weight

Data set [3] can be described thus: Solubility of compound in methyl ethyl ketone (MEK). The settings on record: dissolution amount in MEK at 23° C., visual. The method, then:
(1) Solubility of Compound in Methyl Ethyl Ketone (MEK)
The solubility of the compound in MEK was evaluated according to the following standard using the dissolution amount in MEK at 23° C. For the measurement of the dissolution amount, the compound was precisely weighed in a test tube at 23° C.; and the target solvent was added to the compound so that a predetermined concentration of the liquid to be obtained was set; a ultrasonic wave was applied to the liquid in an ultrasonic washing machine for 30 minutes; and the state of the resulting liquid was visually evaluated.
Evaluation A: 50% by weight or more
Evaluation B: 10% by weigh or more and less than 50% by weight
Evaluation C: less than 10% by weight

The nature of data set [4]: Thermal decomposition temperature by DSC. The following applies: 10° C./min to 500° C., nitrogen gas stream. The protocol:
(3) Thermal Decomposition Temperature
The apparatus EXSTAR6000DSC (trade name) manufactured by SII NanoTechnology Inc. was used. About 5 mg of each sample was placed in a non-sealed container made of aluminum, and the temperature was raised to 500° C. at the rate of temperature rise of 10° C./min in a nitrogen gas stream (30 mL/min). The temperature corresponding to a descending peak appeared in the baseline was defined as the thermal decomposition temperature.

In data set [1], `Oc1cccc2c(O)c(C(c3ccc(-c4ccccc4)cc3)c3ccc4c(O)cccc4c3O)ccc12` [BisN-3] registered a glass transition point of 130 °C. For the same compound, in data set [2], the “Solubility test of compound in safe solvent PGME” value was “A (A: 5.0% by weight≦dissolution amount)” and the “Solubility test of compound in safe solvent PGMEA” value is on record as “A (A: 5.0% by weight≦dissolution amount)”. Besides, the “solubility in MEK” value in data set [3] is “B (Evaluation B: 10% by weigh or more and less than 50% by weight)”. Besides, the thermal decomposition temperature in data set [4] was 250 °C.
As for `Oc1ccc2c(C(c3ccc(C(c4c(O)ccc5cc(O)ccc45)c4c(O)ccc5cc(O)ccc45)cc3)c3c(O)ccc4cc(O)ccc34)c(O)ccc2c1` [BisN-12], in data set [1], the glass transition point was 130 °C. For the same compound, in data set [2], the “Solubility test of compound in safe solvent PGME” value was “A (A: 5.0% by weight≦dissolution amount)” and the “Solubility test of compound in safe solvent PGMEA” value is recorded as “A (A: 5.0% by weight≦dissolution amount)”. Further, the “solubility in MEK” value in data set [3] was “B (Evaluation B: 10% by weigh or more and less than 50% by weight)”. The same compound came in with a thermal decomposition temperature in data set [4] of 245 °C.
In data set [1], `Oc1ccc2ccc3c(c2c1)Oc1c(ccc2ccc(O)cc12)C3c1ccc(-c2ccccc2)cc1` [XBisN-5] had a glass transition point of 152 °C. In data set [2], the “Solubility test of compound in safe solvent PGME” value is “A (A: 5.0% by weight≦dissolution amount)” and the “Solubility test of compound in safe solvent PGMEA” value is given as “A (A: 5.0% by weight≦dissolution amount)”. Moreover, the “solubility in MEK” value in data set [3] is “B (Evaluation B: 10% by weigh or more and less than 50% by weight)”. The thermal decomposition temperature in data set [4] amounted to 410 °C.
Consider `Oc1ccc2ccc(O)c(C(c3ccc(-c4ccccc4)cc3)c3c(O)ccc4ccc(O)cc34)c2c1` [BisN-2], for which the glass transition point in data set [1] is 130 °C. Moreover, in data set [2], the “Solubility test of compound in safe solvent PGME” value is on record as “A (A: 5.0% by weight≦dissolution amount)” and the “Solubility test of compound in safe solvent PGMEA” value was “A (A: 5.0% by weight≦dissolution amount)”. Further, the “solubility in MEK” value in data set [3] was “B (Evaluation B: 10% by weigh or more and less than 50% by weight)”. Also, the thermal decomposition temperature in data set [4] turned out to be 250 °C.
As to `Oc1ccc2ccc3c(c2c1)C(c1ccc(-c2ccccc2)cc1)c1c(ccc2ccc(O)cc12)O3` [XBisN-2], the glass transition point in data set [1] was 152 °C. Also, in data set [2], the “Solubility test of compound in safe solvent PGME” value is “A (A: 5.0% by weight≦dissolution amount)” and the “Solubility test of compound in safe solvent PGMEA” value is reported as “A (A: 5.0% by weight≦dissolution amount)”. The “solubility in MEK” value in data set [3] was “B (Evaluation B: 10% by weigh or more and less than 50% by weight)”. This compound also registered a thermal decomposition temperature in data set [4] of 410 °C.
For `Oc1ccc2c(C(c3ccc(-c4ccccc4)cc3)c3c(O)ccc4cc(O)ccc34)c(O)ccc2c1` [BisN-1], the glass transition point in data set [1] worked out at 130 °C. In data set [2], the “Solubility test of compound in safe solvent PGME” value is given as “A (A: 5.0% by weight≦dissolution amount)” and the “Solubility test of compound in safe solvent PGMEA” value is “A (A: 5.0% by weight≦dissolution amount)”. For the same compound, in data set [3], the “solubility in MEK” value is “B (Evaluation B: 10% by weigh or more and less than 50% by weight)”. This compound also had a thermal decomposition temperature in data set [4] of 250 °C.
`Oc1ccc2c3c(ccc2c1)Oc1ccc2cc(O)ccc2c1C31c2ccccc2-c2ccccc21` [XBisN-11] showed a glass transition point in data set [1] of 145 °C. In data set [2], the “Solubility test of compound in safe solvent PGME” value was “A (A: 5.0% by weight≦dissolution amount)” and the “Solubility test of compound in safe solvent PGMEA” value is reported as “A (A: 5.0% by weight≦dissolution amount)”. In addition, in data set [3], the “solubility in MEK” value was “B (Evaluation B: 10% by weigh or more and less than 50% by weight)”. The compound also yielded a thermal decomposition temperature in data set [4] of 450 °C.
In turn, `Oc1ccc2c(C3(c4c(O)ccc5cc(O)ccc45)CCCCC3)c(O)ccc2c1` [BisN-10] registered a glass transition point in data set [1] of 100 °C. In data set [2], the “Solubility test of compound in safe solvent PGME” value is “A (A: 5.0% by weight≦dissolution amount)” and the “Solubility test of compound in safe solvent PGMEA” value is reported as “A (A: 5.0% by weight≦dissolution amount)”. The “solubility in MEK” value in data set [3] is “B (Evaluation B: 10% by weigh or more and less than 50% by weight)”. In data set [4], this compound came in with a thermal decomposition temperature of 210 °C.
Consider `Oc1ccc2c3c(ccc2c1)Oc1ccc2cc(O)ccc2c1C3c1cccc2ccccc12` [XBisN-7], for which, in data set [1], the glass transition point stood at 155 °C. Moreover, in data set [2], the “Solubility test of compound in safe solvent PGME” value is reported as “A (A: 5.0% by weight≦dissolution amount)” and the “Solubility test of compound in safe solvent PGMEA” value is “A (A: 5.0% by weight≦dissolution amount)”. Further, the “solubility in MEK” value in data set [3] was “B (Evaluation B: 10% by weigh or more and less than 50% by weight)”. In addition, in data set [4], the thermal decomposition temperature came to 415 °C.
As to `Oc1ccc2c3c(ccc2c1)Oc1ccc2cc(O)ccc2c1C3c1cc2cccc3ccc4cccc1c4c32` [XBisN-9], the glass transition point in data set [1] stood at 155 °C. For the same compound, in data set [2], the “Solubility test of compound in safe solvent PGME” value is reported as “A (A: 5.0% by weight≦dissolution amount)” and the “Solubility test of compound in safe solvent PGMEA” value is “A (A: 5.0% by weight≦dissolution amount)”. For the same compound, the “solubility in MEK” value in data set [3] is “B (Evaluation B: 10% by weigh or more and less than 50% by weight)”. In data set [4], this compound gave a thermal decomposition temperature of 420 °C.
`Oc1ccc2ccc(C(c3ccc(-c4ccccc4)cc3)c3ccc4ccc(O)cc4c3O)c(O)c2c1` [BisN-5] gave a glass transition point in data set [1] of 130 °C. In data set [2], the “Solubility test of compound in safe solvent PGME” value is recorded as “A (A: 5.0% by weight≦dissolution amount)” and the “Solubility test of compound in safe solvent PGMEA” value was “A (A: 5.0% by weight≦dissolution amount)”. Besides, the “solubility in MEK” value in data set [3] is “B (Evaluation B: 10% by weigh or more and less than 50% by weight)”. The compound also yielded a thermal decomposition temperature in data set [4] of 250 °C.
`Oc1ccc2c(C(c3c(O)ccc4cc(O)ccc34)c3cc4ccccc4c4ccccc34)c(O)ccc2c1` [BisN-8] gave a glass transition point in data set [1] of 140 °C. In addition, in data set [2], the “Solubility test of compound in safe solvent PGME” value was “A (A: 5.0% by weight≦dissolution amount)” and the “Solubility test of compound in safe solvent PGMEA” value is listed as “A (A: 5.0% by weight≦dissolution amount)”. In data set [3], the “solubility in MEK” value was “B (Evaluation B: 10% by weigh or more and less than 50% by weight)”. This compound also returned a thermal decomposition temperature in data set [4] of 255 °C.
The compound `Oc1ccc2c(C(c3cc(C(c4c(O)ccc5cc(O)ccc45)c4c(O)ccc5cc(O)ccc45)cc(C(c4c(O)ccc5cc(O)ccc45)c4c(O)ccc5cc(O)ccc45)c3)c3c(O)ccc4cc(O)ccc34)c(O)ccc2c1` [BisN-14] came in with a glass transition point in data set [1] of 130 °C. Further, in data set [2], the “Solubility test of compound in safe solvent PGME” value is recorded as “A (A: 5.0% by weight≦dissolution amount)” and the “Solubility test of compound in safe solvent PGMEA” value is “A (A: 5.0% by weight≦dissolution amount)”. Further, in data set [3], the “solubility in MEK” value is “B (Evaluation B: 10% by weigh or more and less than 50% by weight)”. In data set [4], this compound returned a thermal decomposition temperature of 245 °C.
`Oc1ccc2c(O)cccc2c1C(c1ccc(-c2ccccc2)cc1)c1c(O)ccc2c(O)cccc12` [BisN-4] came in with a glass transition point in data set [1] of 130 °C. In data set [2], the “Solubility test of compound in safe solvent PGME” value was “A (A: 5.0% by weight≦dissolution amount)” and the “Solubility test of compound in safe solvent PGMEA” value is on record as “A (A: 5.0% by weight≦dissolution amount)”. The “solubility in MEK” value in data set [3] is “B (Evaluation B: 10% by weigh or more and less than 50% by weight)”. In data set [4], this compound showed a thermal decomposition temperature of 250 °C.
